Data as given in publication PMC4645160, “Targeting kinases with anilinopyrimidines: discovery of N-phenyl-N’-[4-(pyrimidin-4-ylamino)phenyl]urea derivatives as selective inhibitors of class III receptor tyrosine kinase subfamily” (Scientific Reports, 2015).

What was measured:
[1] = system: A549 cells; assay: MTT cytotoxicity assay, A549 lung cancer cells; assay type: cell-based, human; details: for IC50: Homo sapiens, A549, 72 h, MTT test, 72 h of drug treatment, read-out: A549 IC50 (μM) ± SD; for Potency relative to SU (A549): ratio between IC50 of sunitinib and IC50 of tested compound
Method: (§1) Compounds active against at least one kinase among EGFR and class III RTKs were evaluated for their cytotoxic properties against two different human cancer cell lines, namely non small cells A549 lung cancer cells (sensitive to EGFR inhibitors)[46] and pancreatic BxPC3 adenocarcinoma (sensitive to both PDGFRβ and EGFR inhibitors)[47][48] cells. […] The results, expressed as IC50 values (μM) calculated from the dose-survival curves obtained after 72 h of drug treatment from the MTT test, are reported in Table 1.
(§2) All compounds, except derivative 27, were dissolved in DMSO just before the experiment, and a calculated amount of drug solution was added to the cell growth medium to a final solvent concentration of 0.5%, which had no discernible effect on cell killing. Compound 27 was dissolved in a 0.9% NaCl solution just before the experiment.
(§3) Human lung (A549), breast (MCF-7), pancreas (BxPC3), and colon (LoVo) carcinoma cell lines along with melanoma (A375) were obtained from American Type Culture Collection (ATCC, Rockville, MD). Human non-tumor embryonic kidney HEK293 cells were obtained from European Collection of Cell Cultures (ECACC, Salisbury, UK). Human cervical carcinoma A431cells were kindly provided by Prof. F. Zunino (Division of Experimental Oncology B, Istituto Nazionale dei Tumori, Milan, Italy). Human ovarian cancer 2008 cells were kindly provided by Prof. G. Marverti (Dept. of Biomedical Science of Modena University, Italy). Cell lines were maintained in the logarithmic phase at 37 °C in a 5% carbon dioxide atmosphere using the following culture media containing 10% fetal calf serum (Euroclone, Milan, Italy), antibiotics (50 units ∙ mL^−1 penicillin and 50 μg ∙ mL^−1 streptomycin) and 2 mM l-glutamine: i) RPMI-1640 medium (Euroclone) for MCF-7, A431, BxPC3 and 2008 cells; ii) F-12 HAM’S (Sigma Chemical Co.) for A549 and LoVo cells; iii) D-MEM medium (Euroclone) for HEK293 cells.
(§4) The growth inhibitory effect towards human cell lines was evaluated by means of MTT (tetrazolium salt reduction) assay. Briefly, 3–8 ∙ 10^3 cells/well, dependent upon the growth characteristics of the cell line, were seeded in 96-well microplates in growth medium (100 μL) and then incubated at 37 °C in a 5% carbon dioxide atmosphere. After 24 h, the medium was removed and replaced with a fresh one containing the test compound at the appropriate concentration. Triplicate cultures were established for each treatment. After 72 h, each well was treated with 10 μL of a 5 mg ∙ mL-1 MTT (3-(4,5-dimethylthiazol-2-yl)-2,5-diphenyltetrazolium bromide) saline solution, and after 5 h additional incubation, 100 μL of a sodium dodecylsulfate (SDS) solution in HCl 0.01 M were added. After overnight incubation, the inhibition of cell growth induced by the tested complexes was detected by measuring the absorbance of each well at 570 nm using a Bio-Rad 680 microplate reader (Bio-Rad, Hercules, CA). Mean absorbance for each drug dose was expressed as a percentage of the control untreated well absorbance and plotted vs drug concentration.

[2] = system: BxPC3 cells; assay: MTT cytotoxicity assay, BxPC3 pancreatic adenocarcinoma cells; assay type: cell-based, human; details: for IC50: Homo sapiens, BXPC-3, MTT test, 72 h of drug treatment, read-out: BxPC3 IC50 (μM) ± SD; for Potency relative to SU (BxPC3): ratio between IC50 of sunitinib and IC50 of tested compound
Method: as §1, §2, §3, §4

[3] = system: panel of 48 kinases; assay: KinomeScan primary screening (POC) at 10 μM; assay type: binding, human; details: POC values
Excerpt: Synthesized compounds were screened against a panel of 48 kinases selected within the ScanEDGE subset of DiscoverX (http://www.discoverx.com/services/drug-discovery-development-services/kinase-profiling/kinomescan/scanedge). The ScanEDGE includes 97 kinases and is an economical approach to assess compounds selectivity throughout the human kinome. All the wt-TKs along with some relevant mutants of Abl1 (T315I) and of EGFR (L858R and L858R/T790M) were chosen. The remaining 18 targets (3 Tyrosine Kinases-Like, TKLs; 15 Serine-Threonine Kinases, STKs) were selected among the remaining kinases in the ScanEDGE subset on the basis of their well established role in cancer (see Fig. S2 for a graphical representation of the selected kinases with reference to the kinome tree. Some references highlighting the role of each kinase in cancer are also reported in Table S3).
The compounds were evaluated using the KinomeScan™ platform (http://www.discoverx.com/services/drug-discovery-development-services/kinase-profiling/kinomescan), that measures the ability of the test compound to disrupt the complex between a high affinity ATP-mimic probe immobilized on a solid support and the kinase of interest. The KinomeScan is a very helpful technology for the fast and reliable screening of a number of compounds against a wide and customizable panel of kinases. Besides, it is not based on the use of hazardous radioactive ^32P-ATP and has a very low rate of false positive (<1%)[44]. The screening platform outputs a “Percent of Control” (POC) value, statistically correlated to the dissociation constant (Kd) value (http://www.discoverx.com/tools-resources/leadhunter-study-reports-data-analysis), for each pair of kinase/ligand. The POC is calculated as reported in equation (1):
Where: test compound signal = amount of kinase still binding the probe after treatment with test compound; negative control signal = amount of kinase still binding the probe after treatment with DMSO (100% control); positive control signal = amount of kinase still binding the probe after treatment with control compound (0% control).
The compounds were tested at high concentration (10 μM), in order to highlight not only the main target but also the off-targets. The results of the preliminary screening are reported as heat map (Fig. 4; see also Table S4 for all the measured values), in which the compounds are grouped on the basis of the 6 or 5 substituent at the pyrimidine ring.

[4] = system: MCF-7 cells; assay: MTT cytotoxicity assay, MCF-7 breast cancer cells; assay type: cell-based; details: Homo sapiens, MCF7; MTT test, 72 h; read-out: MCF-7 IC50 (μM) ± SD
Method: (§5) The cytotoxic profile of 19 and 27 was assessed on a wider panel of human tumor cell lines including also examples of breast (MCF-7), cervical (A431), colorectal (HCT-15), and ovarian (2008) cancers as well as melanoma (A375), besides lung (A549) and pancreatic (BxPC3) cancer cells. IC50 values, calculated from the dose-survival curves obtained after 72 h of drug treatment from the MTT test, are reported in Table 2. […] Both compounds were endowed with a cytotoxic potency higher than that of SU, eliciting IC50 values in the low micromolar range.
as §2
(§6) Human lung (A549), breast (MCF-7), pancreas (BxPC3), and colon (LoVo) carcinoma cell lines along with melanoma (A375) were obtained from American Type Culture Collection (ATCC, Rockville, MD). Human non-tumor embryonic kidney HEK293 cells were obtained from European Collection of Cell Cultures (ECACC, Salisbury, UK). Human cervical carcinoma A431cells were kindly provided by Prof. F. Zunino (Division of Experimental Oncology B, Istituto Nazionale dei Tumori, Milan, Italy). Human ovarian cancer 2008 cells were kindly provided by Prof. G. Marverti (Dept. of Biomedical Science of Modena University, Italy). […]
(§7) The growth inhibitory effect towards human cell lines was evaluated by means of MTT (tetrazolium salt reduction) assay. […] After overnight incubation, the inhibition of cell growth induced by the tested complexes was detected by measuring the absorbance of each well at 570 nm using a Bio-Rad 680 microplate reader (Bio-Rad, Hercules, CA). Mean absorbance for each drug dose was expressed as a percentage of the control untreated well absorbance and plotted vs drug concentration.

[5] = system: HEK293 cells; assay: MTT cytotoxicity assay, non-tumor HEK293 cells; assay type: cell-based, human; details: Homo sapiens, HEK293; MTT test, 72 h, non-tumor cells; read-out: HEK293 IC50 (μM) ± SD
Method: F. Zunino (Division of Experimental Oncology B, Istituto Nazionale dei Tumori, Milan, Italy).
The growth inhibitory effect towards human cell lines was evaluated by means of MTT (tetrazolium salt reduction) assay. […] Triplicate cultures were established for each treatment.

[6] = system: A375 cells; assay: MTT cytotoxicity assay, A375 melanoma cells; assay type: cell-based; details: Homo sapiens, A-375; MTT test, 72 h; read-out: A375 IC50 (μM) ± SD
Method: as §5, §2, §6, §7

[7] = system: LoVo cells; assay: MTT cytotoxicity assay, LoVo colon carcinoma cells; assay type: cell-based; details: Homo sapiens, MTT test, 72 h, read-out: LoVo IC50 (μM) ± SD
Method: as §5, §2, §6, §7

[8] = system: 2008 cells; assay: MTT cytotoxicity assay, 2008 ovarian cancer cells; assay type: cell-based; details: Homo sapiens; MTT test, 72 h; read-out: 2008 IC50 (μM) ± SD
Method: as §5, §2, §6, §7

Row | Compound | melting point [°C] | IC50 [1] [µM] | Potency relative to SU (A549) [1] | IC50 [2] [µM] | Potency relative to SU (BxPC3) [2] | Selectivity profile (kinases targeted) in primary screening [3] | IC50 [4] [µM] | IC50 [5] [µM] | IC50 [6] [µM] | IC50 [7] [µM] | IC50 [8] [µM]
1 | Oc1cccc(Nc2cc(Nc3ccccc3)ncn2)c1 [Compound 3] | 253 | 28.2 ± 5.46 | 0.22 | 8.19 ± 2.18 | 0.62 |  |  |  |  |  | 
2 | Oc1ccc(Nc2ncncc2-c2ccccc2)cc1 [Compound 24] | 118 | 12.1 ± 1.99 | 0.51 | 16.4 ± 4.22 | 0.31 |  |  |  |  |  | 
3 | Oc1ccc(Nc2cc(Nc3ccccc3)ncn2)cc1 [Compound 5] | 286 | 16.3 ± 4.24 | 0.38 | 6.51 ± 1.07 | 0.78 | EGFR; class III RTK; AXL |  |  |  |  | 
4 | Brc1cccc(Nc2cc(Nc3cccc(Br)c3)ncn2)c1 [Compound 9] | 243 | > 50 | <0.12 | > 50 | <0.10 |  |  |  |  |  | 
5 | Cc1cccc(Nc2cc(Nc3cccc(C)c3)ncn2)c1 [Compound 8] |  | > 50 | <0.12 | > 50 | <0.10 |  |  |  |  |  | 
6 | O=C(Nc1ccccc1)Nc1ccc(Nc2ncncc2-c2ccccc2)cc1 [Compound 26] |  | 28.9 ± 5.86 | 0.21 | 30.9 ± 4.18 | 0.16 | class III RTK |  |  |  |  | 
7 | Cc1ccc(Nc2cc(Nc3ccccc3)ncn2)cc1 [Compound 4] | 265 | 14.2 ± 2.75 | 0.44 | 23.2 ± 4.29 | 0.22 | EGFR selective |  |  |  |  | 
8 | Oc1ccc(Nc2cc(Nc3ccc(O)cc3)ncn2)cc1 [Compound 12] |  | > 50 | <0.12 | > 50 | <0.10 | EGFR; calss III RTK; AXL; TRKA; JAK3 |  |  |  |  | 
9 | Cc1cccc(Nc2ncncc2-c2ccccc2)c1 [Compound 20] |  |  |  |  |  | Inactive |  |  |  |  | 
10 | c1ccc(Nc2cc(Nc3cccc(-c4ccccc4)c3)ncn2)cc1 [Compound 2] | 267 | 26.5 ± 3.85 | 0.23 | 17.9 ± 2.46 | 0.28 |  |  |  |  |  | 
11 | CCN(CC)CCNC(=O)c1c(C)[nH]c(/C=C2\C(=O)Nc3ccc(F)cc32)c1C [SU, sunitinib, reference compound] |  | 6.22 ± 1.84 |  | 5.05 ± 1.34 |  |  | 2.58 ± 0.85 | 12.2 ± 2.83 | 8.25 ± 2.88 | 8.18 ± 2.67 | 3.52 ± 1.22
12 | Cc1cccc(Nc2cc(-c3ccccc3)ncn2)c1 [Compound 13] | 272 |  |  |  |  | Inactive |  |  |  |  | 
13 | Nc1ccc(Nc2ncncc2-c2ccccc2)cc1 [Compound 25] |  | 26.1 ± 4.55 | 0.24 | 27.9 ± 5.28 | 0.18 |  |  |  |  |  | 
14 | Cc1cccc(Nc2cc(Nc3ccccc3)ncn2)c1 [Compound 1] | 254 | 8.94 ± 2.18 | 0.70 | 6.43 ± 1.78 | 0.79 | EGFR selective |  |  |  |  | 
15 | Nc1ccc(Nc2cc(Nc3ccccc3)ncn2)cc1 [Compound 6] |  | 34 ± 4.98 | 0.18 | 16.1 ± 4.85 | 0.31 |  |  |  |  |  | 
